The values that follow come from patent publication US10857163B1, “Compositions that preferentially potentiate subtypes of GABAA receptors and methods of use thereof” (priority 2019, dated 2020).

Structures are written as SMILES. pIC50: −log10 of the molar value.

Assay [1] addresses T1, α3β2γ2 GABAA receptor (Homo sapiens, UniProt P18507+P34903+P47870).
T1 construct: expressed in transfected cells
In words: FLIPR modulation of GABAA receptor subtype in expressing cells. In kind it is cell-based. The following applies: cells exposed to GABA plus compound, — = value not measurable. How it is done: (§1) Cells expressing the indicated GABAA receptor subtype were exposed to gamma-aminobutyric acid in the presence of varying concentrations of either CV-10155 or SPNC-019, calcium flux was measured using a fluorometric imaging plate reader (FLIPR), and EC50 values for compounds were determined.

Assay [2] has as its target T2, α2β1γ2 GABAA receptor (Homo sapiens, UniProt P18505+P18507+P47869).
T2 construct: expressed in transfected cells
The assay is described as above. In kind it is cell-based. The following applies: cells exposed to GABA plus compound, — = value not measurable. On the procedure: as §1

Assay [3] addresses T3, α2β2γ2 GABAA receptor (Homo sapiens, UniProt P18507+P47869+P47870).
T3 construct: expressed in transfected cells
The description is as above. The following applies: cells exposed to GABA plus compound, — = value not measurable. In kind it is cell-based. On the procedure: as §1

In assay [4] the target is T4, α1β1γ2 GABAA receptor (Homo sapiens, UniProt P14867+P18505+P18507).
T4 construct: expressed in transfected cells
T4 sequence (P14867 28-456): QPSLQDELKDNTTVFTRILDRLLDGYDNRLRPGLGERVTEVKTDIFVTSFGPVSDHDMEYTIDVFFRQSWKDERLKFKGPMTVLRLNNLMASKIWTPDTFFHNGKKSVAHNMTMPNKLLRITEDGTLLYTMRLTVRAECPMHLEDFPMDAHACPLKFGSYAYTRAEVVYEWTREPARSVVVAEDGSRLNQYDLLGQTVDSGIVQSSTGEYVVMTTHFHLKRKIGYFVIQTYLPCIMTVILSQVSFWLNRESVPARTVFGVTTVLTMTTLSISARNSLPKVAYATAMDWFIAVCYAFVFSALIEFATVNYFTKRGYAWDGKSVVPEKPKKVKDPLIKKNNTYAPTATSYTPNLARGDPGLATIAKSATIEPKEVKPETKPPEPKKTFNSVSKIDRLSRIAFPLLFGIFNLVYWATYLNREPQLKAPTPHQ
T4 sequence (P18505 26-474): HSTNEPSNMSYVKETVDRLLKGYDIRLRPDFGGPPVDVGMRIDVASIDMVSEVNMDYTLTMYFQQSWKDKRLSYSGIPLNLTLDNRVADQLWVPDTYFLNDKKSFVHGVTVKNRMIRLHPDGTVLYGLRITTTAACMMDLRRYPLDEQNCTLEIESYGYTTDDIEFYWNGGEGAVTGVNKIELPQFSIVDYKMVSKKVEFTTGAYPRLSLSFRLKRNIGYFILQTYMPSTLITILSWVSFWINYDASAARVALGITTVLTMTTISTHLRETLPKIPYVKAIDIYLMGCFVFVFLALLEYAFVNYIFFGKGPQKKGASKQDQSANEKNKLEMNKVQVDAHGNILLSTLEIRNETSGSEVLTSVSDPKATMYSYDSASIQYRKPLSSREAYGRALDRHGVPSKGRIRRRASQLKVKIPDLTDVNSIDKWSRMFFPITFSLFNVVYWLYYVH
T4 sequence (P18507 40-475): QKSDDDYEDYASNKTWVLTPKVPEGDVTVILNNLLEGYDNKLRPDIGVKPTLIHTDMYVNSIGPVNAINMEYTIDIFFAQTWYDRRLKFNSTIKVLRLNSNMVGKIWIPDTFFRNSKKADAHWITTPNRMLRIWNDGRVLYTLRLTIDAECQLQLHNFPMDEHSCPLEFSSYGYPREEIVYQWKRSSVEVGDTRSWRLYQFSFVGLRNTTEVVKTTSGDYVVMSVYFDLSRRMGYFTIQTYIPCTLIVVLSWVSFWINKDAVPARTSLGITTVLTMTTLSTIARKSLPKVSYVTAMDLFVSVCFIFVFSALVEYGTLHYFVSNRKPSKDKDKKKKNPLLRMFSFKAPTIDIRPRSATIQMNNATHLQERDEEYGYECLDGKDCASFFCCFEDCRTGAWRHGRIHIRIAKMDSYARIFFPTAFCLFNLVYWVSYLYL
The assay is described as above. In kind it is cell-based. The following applies: cells exposed to GABA plus compound, — = value not measurable. On the procedure:
as §1

The target in assay [5] is T5, α5β1γ2 GABAA receptor (Homo sapiens, UniProt P18505+P18507+P31644).
T5 construct: expressed in transfected cells
Described as above. Particulars: cells exposed to GABA plus compound, — = value not measurable. In kind it is cell-based. How it is done: as §1

Assay [6] deals with T6, α3β1γ2 GABAA receptor (Homo sapiens, UniProt P18505+P18507+P34903).
T6 construct: expressed in transfected cells
The assay is described as above. In kind it is cell-based. The following applies: cells exposed to GABA plus compound, — = value not measurable. How it is done:
as §1

In assay [7] the target is T7, α6β1γ2 GABAA receptor (Homo sapiens, UniProt P18505+P18507+Q16445).
T7 construct: expressed in transfected cells
The description is as above. In kind it is cell-based. Particulars: cells exposed to GABA plus compound, — = value not measurable. How it is done:
as §1

Assay [8] concerns the target T8, α4β3γ2 GABAA receptor (Homo sapiens, UniProt P18507+P28472+P48169).
T8 construct: expressed in transfected cells
The description is as above. Particulars: cells exposed to GABA plus compound, — = value not measurable. In kind it is cell-based. On the procedure:
as §1

Assay [9] has as its target T9, α5β2γ2 GABAA receptor (Homo sapiens, UniProt P18507+P31644+P47870).
T9 construct: expressed in transfected cells
Described as above. In kind it is cell-based. The following applies: cells exposed to GABA plus compound, — = value not measurable. How it is done:
as §1

For assay [10], the target named is T10, α4β1γ2 GABAA receptor (Homo sapiens, UniProt P18505+P18507+P48169).
T10 construct: expressed in transfected cells
T10 sequence (P48169 36-554): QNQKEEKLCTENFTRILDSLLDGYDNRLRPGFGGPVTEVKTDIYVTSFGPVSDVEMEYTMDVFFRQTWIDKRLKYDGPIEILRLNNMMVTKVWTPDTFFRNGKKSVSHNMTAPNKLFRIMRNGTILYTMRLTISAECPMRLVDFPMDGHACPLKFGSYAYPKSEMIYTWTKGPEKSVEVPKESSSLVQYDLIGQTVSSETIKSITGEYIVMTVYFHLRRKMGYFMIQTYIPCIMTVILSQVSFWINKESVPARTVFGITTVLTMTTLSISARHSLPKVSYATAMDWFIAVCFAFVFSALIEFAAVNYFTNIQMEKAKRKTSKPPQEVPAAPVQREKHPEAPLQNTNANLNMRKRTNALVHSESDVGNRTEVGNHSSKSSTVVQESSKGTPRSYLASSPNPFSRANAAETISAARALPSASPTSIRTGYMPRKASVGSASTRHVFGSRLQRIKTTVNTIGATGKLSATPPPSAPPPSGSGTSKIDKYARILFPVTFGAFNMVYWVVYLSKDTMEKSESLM
T10 sequence (P18505 26-474): as the sequence (P18505 26-474) above
T10 sequence (P18507 40-475): as the sequence (P18507 40-475) above
Described as above. In kind it is cell-based. The following applies: cells exposed to GABA plus compound, — = value not measurable. How it is done: as §1

In assay [11] the target is T11, α6β3γ2 GABAA receptor (Homo sapiens, UniProt P18507+P28472+Q16445).
T11 construct: expressed in transfected cells
T11 sequence (Q16445 20-453): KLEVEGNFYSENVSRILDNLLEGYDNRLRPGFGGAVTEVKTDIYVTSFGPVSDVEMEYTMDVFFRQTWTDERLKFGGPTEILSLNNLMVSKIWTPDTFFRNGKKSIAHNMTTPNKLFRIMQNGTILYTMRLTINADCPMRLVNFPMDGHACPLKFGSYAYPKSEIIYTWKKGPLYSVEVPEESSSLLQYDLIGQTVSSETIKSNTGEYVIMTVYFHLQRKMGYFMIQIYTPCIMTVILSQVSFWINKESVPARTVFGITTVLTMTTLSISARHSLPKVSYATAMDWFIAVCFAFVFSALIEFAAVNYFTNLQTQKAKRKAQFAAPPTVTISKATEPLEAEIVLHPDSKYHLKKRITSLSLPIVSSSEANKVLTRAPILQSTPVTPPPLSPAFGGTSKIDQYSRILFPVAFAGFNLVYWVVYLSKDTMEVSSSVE
T11 sequence (P28472 26-473): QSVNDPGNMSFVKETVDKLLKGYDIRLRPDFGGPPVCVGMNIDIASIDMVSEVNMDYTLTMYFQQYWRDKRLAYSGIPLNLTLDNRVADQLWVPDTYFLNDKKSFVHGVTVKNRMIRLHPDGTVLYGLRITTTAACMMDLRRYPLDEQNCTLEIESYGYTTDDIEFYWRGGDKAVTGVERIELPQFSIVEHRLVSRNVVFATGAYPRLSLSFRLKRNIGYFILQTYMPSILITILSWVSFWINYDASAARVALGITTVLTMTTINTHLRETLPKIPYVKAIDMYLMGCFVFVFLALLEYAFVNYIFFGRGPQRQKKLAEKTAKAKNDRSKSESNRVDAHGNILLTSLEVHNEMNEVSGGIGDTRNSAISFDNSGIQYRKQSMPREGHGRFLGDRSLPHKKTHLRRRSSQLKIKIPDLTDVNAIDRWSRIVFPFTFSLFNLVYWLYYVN
T11 sequence (P18507 40-475): as the sequence (P18507 40-475) above
The description is as above. In kind it is cell-based. The following applies: cells exposed to GABA plus compound, — = value not measurable. How it is done:
as §1

Assay [12] concerns the target T12, α1β2γ2 GABAA receptor (Homo sapiens, UniProt P14867+P18507+P47870).
T12 construct: expressed in transfected cells
The assay is described as above. In kind it is cell-based. Particulars: cells exposed to GABA plus compound, — = value not measurable. How it is done: as §1

Assay [13] addresses T13, α6β2γ2 GABAA receptor (Homo sapiens, UniProt P18507+P47870+Q16445).
T13 construct: expressed in transfected cells
The description is as above. Particulars: cells exposed to GABA plus compound, — = value not measurable. In kind it is cell-based. How it is done: as §1

For assay [14], the target named is T14, α5β3γ2 GABAA receptor (Homo sapiens, UniProt P18507+P28472+P31644).
T14 construct: expressed in transfected cells
T14 sequence (P31644 32-462): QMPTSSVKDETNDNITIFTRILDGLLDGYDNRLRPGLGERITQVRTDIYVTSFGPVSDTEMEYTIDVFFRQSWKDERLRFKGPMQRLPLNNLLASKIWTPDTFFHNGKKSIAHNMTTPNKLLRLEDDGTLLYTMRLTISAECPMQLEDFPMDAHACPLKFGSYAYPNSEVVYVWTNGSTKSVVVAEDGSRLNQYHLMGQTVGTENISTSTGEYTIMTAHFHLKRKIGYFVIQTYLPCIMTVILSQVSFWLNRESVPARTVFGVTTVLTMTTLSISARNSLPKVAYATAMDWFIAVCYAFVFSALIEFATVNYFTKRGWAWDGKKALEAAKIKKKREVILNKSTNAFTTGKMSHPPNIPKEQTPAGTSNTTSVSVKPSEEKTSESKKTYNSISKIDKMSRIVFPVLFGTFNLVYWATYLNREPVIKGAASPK
T14 sequence (P28472 26-473): as the sequence (P28472 26-473) above
T14 sequence (P18507 40-475): as the sequence (P18507 40-475) above
The assay is described as above. In kind it is cell-based. The following applies: cells exposed to GABA plus compound, — = value not measurable. How it is done:
as §1

The target in assay [15] is T15, α2β3γ2 GABAA receptor (Homo sapiens, UniProt P18507+P28472+P47869).
T15 construct: expressed in transfected cells
The assay is described as above. The following applies: cells exposed to GABA plus compound, — = value not measurable. In kind it is cell-based. On the procedure: as §1

The target of assay [16] is T16, α1β3γ2 GABAA receptor (Homo sapiens, UniProt P14867+P18507+P28472).
T16 construct: expressed in transfected cells
T16 sequence (P14867 28-456): as the sequence (P14867 28-456) above
T16 sequence (P28472 26-473): as the sequence (P28472 26-473) above
T16 sequence (P18507 40-475): as the sequence (P18507 40-475) above
Described as above. In kind it is cell-based. Particulars: cells exposed to GABA plus compound, — = value not measurable. On the procedure:
as §1

Assay [17] has as its target T17, α3β3γ2 GABAA receptor (Homo sapiens, UniProt P18507+P28472+P34903).
T17 construct: expressed in transfected cells
The assay is described as above. In kind it is cell-based. The following applies: cells exposed to GABA plus compound, — = value not measurable. On the procedure:
as §1

Assay [18] deals with GABAA receptor subtypes. In words: FLIPR panel of 18 GABAA receptor subtypes, overall statement. Particulars: 18 subtypes. In kind it is cell-based. How it is done:
as §1
The only structural difference between CV-10155 and SPNC-019 is the stereochemical configuration of the hydroxyl and methyl groups attached to the carbon atom at position 3 of the steroid core. […] The results further indicate that the isomeric purity of neurosteroid compositions greatly impacts the utility of such compositions as therapeutic agents.

Assay [19] concerns the target T18, α4β3δ GABAA receptor (Homo sapiens, UniProt O14764+P28472+P48169). In words: FLIPR modulation of GABAA receptor subtype in expressing cells. In kind it is cell-based. Details: expressed in transfected cells. How it is done: as §1
Assay [20] concerns the target T12, α1β2γ2 GABAA receptor. Particulars: 10 μM neurosteroid, GABA 2 μM (EC20), LTK cells; Table 2 of WO 2016/061527; cited from earlier work.
Assay [21] deals with picrotoxin binding site of GABAA receptors. Particulars: membranes isolated from the cortices of rat brains; Table 1 of WO 2016/061527; read-out: IC50 in the TBPS displacement assay; cited from earlier work.
The target in assay [22] is T18, α4β3δ GABAA receptor. Details: expressed in transfected cells; host or cells: CHO cells (transient). Particulars: 10 μM neurosteroid, GABA 2 μM (EC20), CHO cells; Table 2 of WO 2016/061527; cited from earlier work.

T18 sequence (P48169 36-554): as the sequence (P48169 36-554) above
T18 sequence (P28472 26-473): as the sequence (P28472 26-473) above
T18 sequence (O14764 25-452): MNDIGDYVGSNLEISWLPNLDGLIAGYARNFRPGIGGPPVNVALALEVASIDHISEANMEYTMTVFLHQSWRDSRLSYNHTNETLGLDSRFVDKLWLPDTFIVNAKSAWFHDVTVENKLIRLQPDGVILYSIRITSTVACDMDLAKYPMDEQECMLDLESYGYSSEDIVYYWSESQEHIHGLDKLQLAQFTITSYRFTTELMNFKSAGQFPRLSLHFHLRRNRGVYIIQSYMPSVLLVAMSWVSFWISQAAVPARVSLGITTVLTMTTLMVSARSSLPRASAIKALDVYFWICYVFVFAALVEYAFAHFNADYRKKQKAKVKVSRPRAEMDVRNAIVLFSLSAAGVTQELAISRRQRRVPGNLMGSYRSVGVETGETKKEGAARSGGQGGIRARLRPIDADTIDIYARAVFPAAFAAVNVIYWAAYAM
T12 sequence (P14867 28-456): as the sequence (P14867 28-456) above
T12 sequence (P47870 25-512 limits assumed): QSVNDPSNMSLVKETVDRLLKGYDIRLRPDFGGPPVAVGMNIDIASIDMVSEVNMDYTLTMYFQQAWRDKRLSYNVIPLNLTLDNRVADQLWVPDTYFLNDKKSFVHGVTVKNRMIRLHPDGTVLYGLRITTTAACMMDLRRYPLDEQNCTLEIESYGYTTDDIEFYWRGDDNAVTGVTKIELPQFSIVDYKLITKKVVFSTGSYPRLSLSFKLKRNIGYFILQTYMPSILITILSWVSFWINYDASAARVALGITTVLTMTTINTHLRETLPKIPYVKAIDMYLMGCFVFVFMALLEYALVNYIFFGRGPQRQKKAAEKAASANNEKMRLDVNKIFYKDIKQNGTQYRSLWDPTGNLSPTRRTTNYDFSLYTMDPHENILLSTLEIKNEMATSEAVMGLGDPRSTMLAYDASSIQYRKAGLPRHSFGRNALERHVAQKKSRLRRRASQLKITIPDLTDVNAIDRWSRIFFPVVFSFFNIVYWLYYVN
T12 sequence (P18507 40-475): as the sequence (P18507 40-475) above
T9 sequence (P31644 32-462): as the sequence (P31644 32-462) above
T9 sequence (P47870 25-512 limits assumed): as the sequence (P47870 25-512 limits assumed) above
T9 sequence (P18507 40-475): as the sequence (P18507 40-475) above
T8 sequence (P48169 36-554): as the sequence (P48169 36-554) above
T8 sequence (P28472 26-473): as the sequence (P28472 26-473) above
T8 sequence (P18507 40-475): as the sequence (P18507 40-475) above

The EC50 is the midpoint of the concentration-response curve. Consider `C[C@@]1(O)CC[C@@]2(C)[C@@H](CC[C@@H]3[C@@H]2CC[C@]2(C)[C@@H](C(=O)Cn4cc(C#N)cn4)CC[C@@H]32)C1` [CV-10155], for which the EC50 in assay [1] came to 1820 nM; in assay [2] it was 253 nM; in [3], 213 nM; in assay [4], 521 nM; in assay [5], 762 nM; in [6], 946 nM. Also, the EC50 in [7] came to 359 nM; in [8] it was 1330 nM; in [9], 359 nM; in assay [10], 204 nM; in [11] it was 245 nM; in [12] it was 839 nM. Further, the EC50 came to 1100 nM in assay [13]; 1300 nM in [14]; 296 nM in assay [15]; 520 nM in assay [16]; 273 nM in assay [17]; 106 nM in [19] (FLIPR, cells exposed to GABA plus compound, — = value not measurable). Further, in [18], the “modulating activity across the GABAA receptor subtypes tested” value is reported as “some level of positive allosteric modulating activity in all of the GABAA receptor subtypes tested”. The “activity on α4β3δ compared with α1β2γ2 GABAA receptors, in words” value in [19] (data of Example 1) is on record as “substantially more active on α4β3δ GABAA receptors than on α1β2γ2 GABAA receptors”. The “EC50 for α4β3δ receptors lower than for α1β2γ2 receptors” value in [19] (isomerically pure composition, α4β3δ versus α1β2γ2) is reported as “at least 5 fold”.

The term pIC50 denotes −log10 of the IC50, conventionally taken in molar units. Regarding `C[C@@]1(O)CC[C@@]2(C)[C@@H](CC[C@@H]3[C@@H]2CC[C@]2(C)[C@@H](C(=O)Cn4ccc(C#N)n4)CC[C@@H]32)C1` [Compound 121], the “efficacy: relative potentiation of GABA-mediated conductance, α1β2γ2” value in assay [20] is over 500%. In addition, the pIC50 in [21] was 7.30 to 8.00. For the same compound, the “efficacy: relative potentiation of GABA-mediated conductance, α4β3δ” value in assay [22] was over 500%.

As for `C[C@]1(O)CC[C@@]2(C)[C@@H](CC[C@@H]3[C@@H]2CC[C@]2(C)[C@@H](C(=O)Cn4cc(C#N)cn4)CC[C@@H]32)C1` [SPNC-019, reference compound], the EC50 in [9] came to 1200 nM; in assay [11] it was 1770 nM; in assay [14], 1810 nM. For the same compound, the “modulating activity across the GABAA receptor subtypes tested” value in [18] is on record as “no modulating activity in 15 of the 18 GABAA receptor subtypes tested”.

Take `C[C@@]1(O)CC[C@@]2(C)[C@H](CC[C@@H]3[C@@H]2CC[C@]2(C)[C@@H](C(=O)Cn4cc(C#N)cn4)CC[C@@H]32)C1` [Compound 10]: the pIC50 in assay [21] is over 8.00.
